The results in this text go back to patent US9890185B2, “Urea derivatives useful as kinase inhibitors” (Respivert Limited, priority 2013, dated 2018).

One assay concerns the target c-Src (Homo sapiens (Human), UniProt P12931). The assay can be described thus: c-Src enzyme inhibition (FRET, Z-LYTE). In kind it is biochemical. The method, boiled down:
(§1)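 First, compound and enzyme incubate 2 hr at room temperature. Next, FRET peptide (8 μM added solution) and ATP go in for 1 hr, using an 800 μM solution for c-Src and 60 μM for Syk. Finally protease develops for 1 hr; IC50 is fitted to inhibition versus concentration.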

Another assay has as its target GSK 3α (Homo sapiens (Human), UniProt P49840). The assay can be described thus: GSK 3α enzyme inhibition (FRET, Z-LYTE, Method 2). In kind it is biochemical. Particulars: read-out: IC50 Values for Enzyme Inhibition, GSK3α. The method in brief: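 Human GSK3α (500 ng/mL) preincubated with compound (4, 0.4, 0.04 or 0.004 μg/mL) at RT for 2 h (Method 1) or 105 min (Method 2). Then FRET peptide (8 μM) and ATP (40 μM) added for 1 h, followed by protease development for 1 h. IC50 from the coumarin/fluorescein emission ratio relative to uninhibited control.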

The target in the next assay is Syk (Homo sapiens (Human), UniProt P43405). The assay can be described thus: Syk enzyme inhibition (FRET, Z-LYTE). It is filed as biochemical. The method in brief: as §1
The subject of the next assay is HT29 cells. Briefly: IL-1β-induced IL-8 release in HT29 cells (assay d). It is filed as cell-based. The settings on record: Homo sapiens, HT-29; IL-1β-stimulated HT29 cells; read-out: IC50 Values for Inhibition of Cytokine Release, HT29 cells IL-8. The protocol:
HT29 cells, a human colon adenocarcinoma cell line, are plated in a 96 well plate (24 hrs) and pre-treated with compounds at the desired concentration for 2 hours before addition of 5 ng/mL of IL-1β (Abcam) for 24 hours. Supernatants are harvested for IL-8 quantification by Sandwich ELISA (Duo-set, R&D System). The IC50 is determined from the dose response curve.

c-Src, sequence (P12931 whole entry, looked up): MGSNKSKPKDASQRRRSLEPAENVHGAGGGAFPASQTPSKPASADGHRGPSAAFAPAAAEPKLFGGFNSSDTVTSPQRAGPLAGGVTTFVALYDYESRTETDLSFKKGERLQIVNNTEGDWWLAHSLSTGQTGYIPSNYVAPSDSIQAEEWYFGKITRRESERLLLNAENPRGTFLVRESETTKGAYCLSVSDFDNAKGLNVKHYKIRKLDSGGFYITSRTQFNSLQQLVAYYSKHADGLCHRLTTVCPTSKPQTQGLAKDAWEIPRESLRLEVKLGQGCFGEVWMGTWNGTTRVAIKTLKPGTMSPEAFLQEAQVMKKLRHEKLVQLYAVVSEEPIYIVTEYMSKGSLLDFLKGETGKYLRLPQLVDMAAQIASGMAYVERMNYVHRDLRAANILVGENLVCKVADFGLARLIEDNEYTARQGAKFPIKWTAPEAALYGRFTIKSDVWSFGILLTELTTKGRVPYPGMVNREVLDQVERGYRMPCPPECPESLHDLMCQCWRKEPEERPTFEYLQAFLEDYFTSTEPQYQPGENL
GSK 3α, sequence (P49840 whole entry): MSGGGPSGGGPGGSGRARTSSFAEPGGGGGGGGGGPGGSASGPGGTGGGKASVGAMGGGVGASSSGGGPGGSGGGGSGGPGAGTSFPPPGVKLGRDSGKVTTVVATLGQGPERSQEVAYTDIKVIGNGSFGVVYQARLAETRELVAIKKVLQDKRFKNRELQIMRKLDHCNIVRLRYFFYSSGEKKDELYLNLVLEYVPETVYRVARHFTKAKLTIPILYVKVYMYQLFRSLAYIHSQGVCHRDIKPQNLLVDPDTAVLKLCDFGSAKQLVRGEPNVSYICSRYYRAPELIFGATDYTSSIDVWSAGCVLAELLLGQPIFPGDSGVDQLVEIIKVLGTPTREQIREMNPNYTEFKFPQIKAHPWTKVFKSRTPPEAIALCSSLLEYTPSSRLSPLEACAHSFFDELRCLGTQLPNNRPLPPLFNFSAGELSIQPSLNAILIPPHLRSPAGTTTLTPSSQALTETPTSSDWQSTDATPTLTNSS

As a reminder, the IC50 is the concentration at which inhibition is half-maximal. In the case of `COCCOCCOCCOc1cc(Nc2cc(Oc3ccc(NC(=O)Nc4cc(C(C)(C)C)cc(CS(C)(=O)=O)c4OC)c4ccccc34)ccn2)cc(OC)c1` [15(a), 1-(5-(tert-butyl)-2-methoxy-3-((methylsulfonyl)methyl)phenyl)-3-(4-((2-((3-methoxy-5-(2-(2-(2-methoxyethoxy)ethoxy)ethoxy)phenyl)amino)pyridin-4-yl)oxy)naphthalen-1-yl)urea], the IC50 against c-Src is 28 nM; on GSK 3α, > 12200 nM; against Syk, 134 nM; in the assay on HT29 cells, 4.2 nM.
Consider `COc1c(NC(=O)Nc2ccc(Oc3ccnc(Nc4cccnc4)c3)c3ccccc23)cc(C(C)(C)C)cc1P(C)(C)=O` [15(ad), 1-(5-(tert-butyl)-3-(dimethylphosphoryl)-2-methoxyphenyl)-3-(4-((2-(pyridin-3-ylamino)pyridin-4-yl)oxy)naphthalen-1-yl)urea], for which the IC50 was found to be 129 nM on c-Src, 1600 nM at GSK 3α and 1000 nM on Syk.
For `COc1cc(F)cc(Nc2cc(Oc3ccc(NC(=O)Nc4cc(C(C)(C)C)cc(P(C)(C)=O)c4OC)c4ccccc34)ccn2)c1` [15(an), 1-(5-(tert-butyl)-3-(dimethylphosphoryl)-2-methoxyphenyl)-3-(4-((2-((3-fluoro-5-methoxyphenyl)amino)pyridin-4-yl)oxy)naphthalen-1-yl)urea] the same measures were 116 nM, > 15200 nM and 712 nM.
The like results for `COc1c(NC(=O)Nc2ccc(Oc3ccnc(Nc4cnn(C)n4)n3)c3ccccc23)cc(C(C)(C)C)cc1P(C)(C)=O` [15(x), 1-(5-(tert-butyl)-3-(dimethylphosphoryl)-2-methoxyphenyl)-3-(4-((2-((2-methyl-2H-1,2,3-triazol-4-yl)amino)pyrimidin-4-yl)oxy)naphthalen-1-yl)urea] were, in that order, 356 nM, 4660 nM and > 1630 nM.
For `COc1c(CC(N)=O)cc(C(C)(C)C)cc1NC(=O)Nc1ccc(Oc2ccnc(NCc3ccccn3)c2)c2ccccc12` [38(d), 2-(5-(tert-Butyl)-2-methoxy-3-(3-(4-((2-((pyridin-2-ylmethyl)amino)pyridin-4-yl)oxy)naphthalen-1-yl)ureido)phenyl)acetamide] the same measures were > 1570 nM, 2240 nM and > 1650 nM.
Consider `COc1c(CC(N)=O)cc(C(C)(C)C)cc1NC(=O)Nc1ccc(Oc2ccnc(Nc3cc(C)cc(C)c3)c2)c2ccccc12` [38(f), 2-(5-(tert-Butyl)-3-(3-(4-((2-((3,5-dimethylphenyl)amino)pyridin-4-yl)oxy)naphthalen-1-yl)ureido)-2-methoxyphenyl)acetamide], for which the IC50 was 69 nM on c-Src, 14800 nM on GSK 3α, 837 nM on Syk and 4.8 nM with HT29 cells.
As for `CNC(=O)Cc1cc(C(C)(C)C)cc(NC(=O)Nc2ccc(Oc3ccnc(Nc4cccc(OC)c4)c3)c3ccccc23)c1OC` [38(h), 2-(5-(tert-Butyl)-2-methoxy-3-(3-(4-((2-((3-methoxyphenyl)amino)pyridin-4-yl)oxy)naphthalen-1-yl)ureido)phenyl)-N-methylacetamide], the half-maximal inhibitory concentration (IC50) is 181 nM against c-Src, > 14600 nM on GSK 3α and 1080 nM at Syk.
The like results for `COc1cc(Nc2cc(Oc3ccc(NC(=O)Nc4cc(C(C)(C)C)cc(CC(N)=O)c4OC)c4ccccc34)ccn2)ccn1` [38(k), 2-(5-(tert-Butyl)-2-methoxy-3-(3-(4-((2-((2-methoxypyridin-4-yl)amino)pyridin-4-yl)oxy)naphthalen-1-yl)ureido)phenyl)acetamide] were, in that order, 166 nM, 2620 nM and > 1610 nM.
In the case of `COc1cc(CO)cc(Nc2cc(Oc3ccc(NC(=O)Nc4cc(C(C)(C)C)cc(CC(N)=O)c4OC)c4ccccc34)ccn2)c1` [38(m), 2-(5-(tert-Butyl)-3-(3-(4-((2-((3-(hydroxymethyl)-5-methoxyphenyl)amino)pyridin-4-yl)oxy)naphthalen-1-yl)ureido)-2-methoxyphenyl)acetamide], the IC50 against c-Src is 33 nM; on GSK 3α, 3380 nM; on Syk, 364 nM.
The like results for `COc1cncc(Nc2cc(Oc3ccc(NC(=O)Nc4cc(C(C)(C)C)cc(CC(N)=O)c4OC)c4ccccc34)ccn2)c1` [38(n), 2-(5-(tert-butyl)-2-methoxy-3-(3-(4-((2-((5-methoxypyridin-3-yl)amino)pyridin-4-yl)oxy)naphthalen-1-yl)ureido)phenyl)acetamide] were, in that order, 95 nM, 1200 nM and > 1610 nM.
For `COc1c(CC(N)=O)cc(C(C)(C)C)cc1NC(=O)Nc1ccc(Oc2ccnc(Nc3ccn(C)n3)c2)c2ccccc12` [38(o), 2-(5-(tert-Butyl)-2-methoxy-3-(3-(4-((2-((1-methyl-1H-pyrazol-3-yl)amino)pyridin-4-yl)oxy)naphthalen-1-yl)ureido)phenyl)acetamide] the same measures were 47 nM, 1050 nM and 381 nM.
The like results for `COc1c(CNC(C)=O)cc(C(C)(C)C)cc1NC(=O)Nc1ccc(Oc2ccnc(NCc3ccccn3)c2)c2ccccc12` [38(q), N-(5-(tert-Butyl)-2-methoxy-3-(3-(4-((2-((pyridin-2-ylmethyl)amino)pyridin-4-yl)oxy)naphthalen-1-yl)ureido)benzyl)acetamide] were, in that order, 383 nM, 1500 nM and > 1620 nM.
For the molecule `COCCOCCOCCOc1cc(Nc2nccc(Oc3ccc(NC(=O)Nc4cc(C(C)(C)C)cc(C(=O)NCCN5CCOCC5)c4OC)c4ccccc34)n2)cc(OC)c1` [Example 8, 5-(tert-Butyl)-2-methoxy-3-(3-(4-((2-((3-methoxy-5-(2-(2-(2-methoxyethoxy)ethoxy)-ethoxy)phenyl)amino)pyrimidin-4-yl)oxy)naphthalen-1-yl)ureido)-N-(2-morpholinoethyl)-benzamide], the IC50 is 14 nM against c-Src, 788 nM at GSK 3α and 42 nM against Syk.
As to `COc1c(NC(=O)Nc2ccc(Oc3ccnc(Nc4ccccc4)c3)c3ccccc23)cc(C(C)(C)C)cc1C(=O)NCCN1CCOCC1` [Example 14, 5-(tert-Butyl)-2-methoxy-N-(2-morpholinoethyl)-3-(3-(4-((2-(phenylamino)pyridin-4-yl)oxy)naphthalen-1-yl)ureido)benzamide], the IC50 against c-Src was 135 nM; at GSK 3α, > 10100 nM; against Syk it was 364 nM.
With `COc1c(CP(C)(C)=O)cc(C(C)(C)C)cc1NC(=O)Nc1ccc(Oc2ccnc(Nc3ccccc3)c2)c2ccccc12` [Example 24, 1-(5-(tert-Butyl)-3-((dimethylphosphoryl)methyl)-2-methoxyphenyl)-3-(4-((2-(phenylamino)-pyridin-4-yl)oxy)naphthalen-1-yl)urea], the half-maximal inhibitory concentration (IC50) was 168 nM on c-Src, 7450 nM on GSK 3α and 289 nM on Syk.
Regarding `COc1c(C[S+](C)[O-])cc(C(C)(C)C)cc1NC(=O)Nc1ccc(Oc2ccnc(Nc3ccccc3)c2)c2ccccc12` (centres unmarked) [Example 25, 1-(5-(tert-Butyl)-2-methoxy-3-((methylsulfinyl)methyl)phenyl)-3-(4-((2-(phenylamino)pyridin-4-yl)oxy)naphthalen-1-yl)urea], the figures for the IC50 at c-Src, at GSK 3α and on Syk were 224 nM, 9620 nM and 724 nM, respectively.
For `COc1c(NC(=O)Nc2ccc(Oc3ccnc(Nc4cc(C)cc(C)c4)c3)c3ccccc23)cc(C(C)(C)C)cc1P(C)(C)=O` [Example 28, 1-(5-(tert-Butyl)-3-(dimethylphosphoryl)-2-methoxyphenyl)-3-(4-((2-((3,5-dimethylphenyl)-amino)pyridin-4-yl)oxy)naphthalen-1-yl)urea] the same measures were 48 nM, 8260 nM and 157 nM.
The like results for `COc1cc(Nc2cc(Oc3ccc(NC(=O)Nc4cc(C(C)(C)C)cc(CC(N)=O)c4OC)c4ccccc34)ccn2)cc(OC)c1` [Example 30, 2-(5-(tert-Butyl)-3-(3-(4-((2-((3,5-dimethoxyphenyl)amino)pyridin-4-yl)oxy)naphthalen-1-yl)ureido)-2-methoxyphenyl)acetamide] were, in that order, 60 nM, > 15400 nM and 708 nM.
With `COc1cccc(Nc2cc(Oc3ccc(NC(=O)Nc4cc(C(C)(C)C)cc(CC(N)=O)c4OC)c4ccccc34)ccn2)c1` [Example 33, 2-(5-(tert-Butyl)-2-methoxy-3-(3-(4-((2-((3-methoxyphenyl)amino)pyridin-4-yl)oxy)naphthalen-1-yl)ureido)phenyl)acetamide], the IC50 on c-Src stood at 63 nM; at GSK 3α, 10500 nM; against Syk, 519 nM.
Regarding `COc1c(CNC(C)=O)cc(C(C)(C)C)cc1NC(=O)Nc1ccc(Oc2ccnc(Nc3ccccc3)c2)c2ccccc12` [Example 35, N-(5-(tert-Butyl)-2-methoxy-3-(3-(4-((2-(phenylamino)pyridin-4-yl)oxy)naphthalen-1-yl)ureido)benzyl)acetamide], the IC50 against c-Src is 112 nM; on GSK 3α, > 11800 nM; against Syk it was 369 nM.
